Reference: the NIST ThermoML archive (doi:10.1021/je500792x)

Experiment: xn = mol fraction of the nth substance listed
Details: Gas, Buoyancy - hydrostatic balance with magnetic suspension - two sinkers

C [methane] + CCC
Details | mass density [kg/m3]
248.15 K, 120.09 kPa, x1 = 0.5069 | 1.7641
248.15 K, 129.19 kPa, x1 = 0.2658 | 2.3527
248.15 K, 129.2 kPa, x1 = 0.2658 | 2.353
248.15 K, 141.7 kPa, x1 = 0.2658 | 2.5862
248.15 K, 159.47 kPa, x1 = 0.2658 | 2.9223
248.15 K, 183.4 kPa, x1 = 0.5069 | 2.7164
248.15 K, 184.56 kPa, x1 = 0.2658 | 3.3988
248.15 K, 188.16 kPa, x1 = 0.2658 | 3.4688
248.15 K, 217.78 kPa, x1 = 0.2658 | 4.0405
248.15 K, 220.8 kPa, x1 = 0.2658 | 4.0982
248.15 K, 244.4 kPa, x1 = 0.5069 | 3.6498
248.15 K, 251.13 kPa, x1 = 0.2658 | 4.6926
248.15 K, 251.49 kPa, x1 = 0.2658 | 4.7012
248.15 K, 271.99 kPa, x1 = 0.2658 | 5.106
248.15 K, 275.99 kPa, x1 = 0.2658 | 5.1859
248.15 K, 303.31 kPa, x1 = 0.5069 | 4.5661
248.15 K, 360.5 kPa, x1 = 0.5069 | 5.4702
248.15 K, 424.87 kPa, x1 = 0.5069 | 6.5055
248.16 K, 96.6 kPa, x1 = 0.2658 | 1.7469
248.16 K, 390.04 kPa, x1 = 0.7498 | 4.4826
248.16 K, 500.33 kPa, x1 = 0.7498 | 5.7986
248.16 K, 580.7 kPa, x1 = 0.7498 | 6.7717
248.16 K, 685.07 kPa, x1 = 0.7498 | 8.0551
248.16 K, 786.24 kPa, x1 = 0.7498 | 9.3205
248.16 K, 835.6 kPa, x1 = 0.7498 | 9.9461
248.17 K, 276.07 kPa, x1 = 0.7498 | 3.1456
273.15 K, 123.94 kPa, x1 = 0.2658 | 2.0343
273.15 K, 149.35 kPa, x1 = 0.2658 | 2.4607
273.15 K, 167.49 kPa, x1 = 0.2658 | 2.7678
273.15 K, 198.96 kPa, x1 = 0.2658 | 3.3031
273.15 K, 218.04 kPa, x1 = 0.5069 | 2.9261
273.15 K, 242.18 kPa, x1 = 0.2658 | 4.0482
273.15 K, 247.99 kPa, x1 = 0.2658 | 4.1483
273.15 K, 258.4 kPa, x1 = 0.5069 | 3.4829
273.15 K, 262.29 kPa, x1 = 0.5069 | 3.5352
273.15 K, 269.26 kPa, x1 = 0.5069 | 3.6315
273.15 K, 277.28 kPa, x1 = 0.5069 | 3.7427
273.15 K, 300.07 kPa, x1 = 0.2658 | 5.0612
273.15 K, 309 kPa, x1 = 0.5069 | 4.1836
273.15 K, 321.34 kPa, x1 = 0.5069 | 4.3576
273.15 K, 323.08 kPa, x1 = 0.5069 | 4.3804
273.15 K, 340.35 kPa, x1 = 0.5069 | 4.6226
273.15 K, 344.34 kPa, x1 = 0.2658 | 5.85
273.15 K, 347.43 kPa, x1 = 0.2658 | 5.905
273.15 K, 396.65 kPa, x1 = 0.2658 | 6.7965
273.15 K, 401.7 kPa, x1 = 0.2658 | 6.8905
273.15 K, 402.73 kPa, x1 = 0.5069 | 5.504
273.15 K, 406.45 kPa, x1 = 0.2658 | 6.9764
273.15 K, 409.05 kPa, x1 = 0.5069 | 5.5939
273.15 K, 415.33 kPa, x1 = 0.5069 | 5.6832
273.15 K, 430.8 kPa, x1 = 0.2658 | 7.425
273.15 K, 441.3 kPa, x1 = 0.5069 | 6.0553
273.15 K, 445.43 kPa, x1 = 0.2658 | 7.6956
273.15 K, 453.52 kPa, x1 = 0.5069 | 6.2301
273.15 K, 486.1 kPa, x1 = 0.2658 | 8.4581
273.15 K, 491.06 kPa, x1 = 0.5069 | 6.7718
273.15 K, 491.24 kPa, x1 = 0.2658 | 8.5547
273.15 K, 491.73 kPa, x1 = 0.2658 | 8.5641
273.15 K, 492.46 kPa, x1 = 0.7498 | 5.1329
273.15 K, 497.16 kPa, x1 = 0.5069 | 6.8601
273.15 K, 500.89 kPa, x1 = 0.7498 | 5.2229
273.15 K, 503.23 kPa, x1 = 0.5069 | 6.9481
273.15 K, 506.93 kPa, x1 = 0.5069 | 7.0019
273.15 K, 537.7 kPa, x1 = 0.2658 | 9.4417
273.15 K, 542.15 kPa, x1 = 0.2658 | 9.5274
273.15 K, 556.33 kPa, x1 = 0.5069 | 7.7247
273.15 K, 562.21 kPa, x1 = 0.2658 | 9.9157
273.15 K, 568.57 kPa, x1 = 0.2658 | 10.0392
273.15 K, 598.52 kPa, x1 = 0.2658 | 10.627
273.15 K, 607.75 kPa, x1 = 0.5069 | 8.4837
273.15 K, 608.84 kPa, x1 = 0.2658 | 10.8307
273.15 K, 612.13 kPa, x1 = 0.5069 | 8.5493
273.15 K, 615.59 kPa, x1 = 0.2658 | 10.9644
273.15 K, 619.26 kPa, x1 = 0.5069 | 8.6551
273.15 K, 625.49 kPa, x1 = 0.5069 | 8.7476
273.15 K, 631.66 kPa, x1 = 0.5069 | 8.8402
273.15 K, 635.08 kPa, x1 = 0.2658 | 11.3537
273.15 K, 652.39 kPa, x1 = 0.2658 | 11.7011
273.15 K, 659.32 kPa, x1 = 0.2658 | 11.8408
273.15 K, 701.31 kPa, x1 = 0.5069 | 9.8889
273.15 K, 705.87 kPa, x1 = 0.5069 | 9.9584
273.15 K, 711.71 kPa, x1 = 0.5069 | 10.0475
273.15 K, 781.92 kPa, x1 = 0.5069 | 11.1241
273.15 K, 803.19 kPa, x1 = 0.5069 | 11.4547
273.15 K, 829.52 kPa, x1 = 0.5069 | 11.8643
273.15 K, 888.98 kPa, x1 = 0.5069 | 12.8024
273.15 K, 899.81 kPa, x1 = 0.7498 | 9.5966
273.15 K, 907.76 kPa, x1 = 0.5069 | 13.1006
273.15 K, 930.25 kPa, x1 = 0.5069 | 13.4618
273.15 K, 971.91 kPa, x1 = 0.5069 | 14.1337
273.15 K, 986.2 kPa, x1 = 0.5069 | 14.3651
273.15 K, 1000.4 kPa, x1 = 0.7498 | 10.7338
273.15 K, 1009.5 kPa, x1 = 0.5069 | 14.7469
273.15 K, 1015 kPa, x1 = 0.7498 | 10.9019
273.15 K, 1015.5 kPa, x1 = 0.5069 | 14.8424
273.15 K, 1041.7 kPa, x1 = 0.5069 | 15.2749
273.15 K, 1299.2 kPa, x1 = 0.7498 | 14.1894
273.15 K, 1500.9 kPa, x1 = 0.7498 | 16.5996
273.15 K, 1510.9 kPa, x1 = 0.7498 | 16.7231
273.15 K, 1700.4 kPa, x1 = 0.7498 | 19.0432
273.15 K, 1998.9 kPa, x1 = 0.7498 | 22.8321
273.15 K, 1999.7 kPa, x1 = 0.7498 | 22.8429
273.15 K, 2002 kPa, x1 = 0.7498 | 22.875
273.15 K, 2303.6 kPa, x1 = 0.7498 | 26.8673
293.14 K, 149.9 kPa, x1 = 0.2658 | 2.2913
293.14 K, 469.3 kPa, x1 = 0.2658 | 7.4652
293.14 K, 568.75 kPa, x1 = 0.2658 | 9.168
293.14 K, 1056.3 kPa, x1 = 0.2658 | 18.3225
293.14 K, 1105.7 kPa, x1 = 0.2658 | 19.3404
293.14 K, 1807.2 kPa, x1 = 0.5069 | 25.9503
293.15 K, 258.04 kPa, x1 = 0.2658 | 3.9961
293.15 K, 355.08 kPa, x1 = 0.2658 | 5.5657
293.15 K, 393.88 kPa, x1 = 0.5069 | 4.9714
293.15 K, 613.82 kPa, x1 = 0.5069 | 7.8849
293.15 K, 655.65 kPa, x1 = 0.2658 | 10.6963
293.15 K, 803.74 kPa, x1 = 0.5069 | 10.489
293.15 K, 857.4 kPa, x1 = 0.2658 | 14.4071
293.15 K, 955.25 kPa, x1 = 0.2658 | 16.2977
293.15 K, 1006.2 kPa, x1 = 0.5069 | 13.3634
